Where a name gives a salt, the structure may show the parent alone.
Target: T1, MMP1 (collagenase 1) (Homo sapiens, UniProt P03956)
T1 construct: made in house; host or cells: mouse C127 cells, vector pBPV-MMT, secreted into culture medium
T1 sequence (P03956 100-469): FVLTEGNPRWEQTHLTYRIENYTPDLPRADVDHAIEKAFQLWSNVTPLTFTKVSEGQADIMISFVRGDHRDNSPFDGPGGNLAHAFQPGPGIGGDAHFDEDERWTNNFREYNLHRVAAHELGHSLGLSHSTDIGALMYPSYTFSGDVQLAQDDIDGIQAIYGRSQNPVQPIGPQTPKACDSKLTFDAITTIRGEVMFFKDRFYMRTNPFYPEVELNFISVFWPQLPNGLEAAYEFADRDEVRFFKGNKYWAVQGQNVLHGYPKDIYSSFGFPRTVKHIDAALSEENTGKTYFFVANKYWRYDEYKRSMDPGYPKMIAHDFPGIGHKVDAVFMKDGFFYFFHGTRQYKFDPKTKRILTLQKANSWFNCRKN
Test: MMP1 (collagenase 1) fluorogenic substrate inhibition assay
Type: biochemical
Details: mean ± SEM of three independent experiments
Protocol: The inhibitory activities of compounds of formula I on MT1-MMP, MMP1 (collagenase 1) and MMP2 (gelatinase A) can be determined as follows:
Stock solutions of substrate (MCA-Pro-Leu-Gly-Leu-Dpa-Ala-Arg-NH2 (SEQ ID NO: 1), C. G. Knight, et al, FEBS lett., 296, 263-266, (1992)), are prepared in 100% DMSO at a concentration 1.0 mM.
Stock solutions of inhibitors are prepared in 100% DMSO. The inhibitor is diluted into the assays from a solution in 100% DMSO, and controls substitute an equal volume of DMSO so that the final DMSO concentration from inhibitor and substrate dilutions in all assays is 6.0%. Assays are performed in assay buffer (150 mM NaCl, 10 mM CaCl2, 50 mM Tris-Cl pH7.5, 0.05% Brij-35) containing 6.0% DMSO once the substrate and inhibitor are diluted into it. […] The fluorescence changes are monitored using an excitation wavelength of 320 nm and an emission wavelength of 340 nm. […] The reaction mixture is preincubated with the inhibitor for 30 min, the reaction is started by the addition of MMP enzyme and the fluorescence intensity is measured for 10 min. […]
C127 cells (ATCC-mouse mammary tumor cell line) are grown in Dulbecco's Modified Essential Medium supplemented with 10% heat inactivated fetal bovine serum and 1× antibiotic-antimycotic solution at 37° C. in a humidified CO2 incubator. […] Media from selected clones are analyzed for collagenase expression by an enzymatic assay. […]

IC50: 1770 ± 144 nM
SMILES: CN(C)c1ccc(CN(CC(=O)NO)S(=O)(=O)c2ccc(OCC3CC3)cc2)cc1 [Example 2, 2-[(4-Cyclopropylmethoxy-benzenesulfonyl)-(4-dimethylamino-benzyl-amino]-N-hydroxy-acetamide HCl salt]
